{
  "source": "patent US10039733B2",
  "about": "“Compositions, method, and kits for treating pulmonary conditions” (NuSirt Sciences, Inc., priority 2013, dated 2018)",
  "key": {"IL1-β": {"system": "IL1-β", "assay": "IL1-β secretion from MLEC (ELISA)", "type": "cell-based, mouse", "settings": "MLEC treated directly; theophylline 1 μM, leucine 0.5 mM, resveratrol 200 nM; FIG. 4", "text": "(§1) Interleukin 1-β, eotaxin, and interleukin 6 were all measured via enzyme-linked immunosorbent assay using specific antibodies for each cytokine (Abcam, Cambridge, Mass.) and a horseradish peroxidase-based second antibody detection system, with chromogenic detection at 450 nm using a microplate reader (Synergy HT, BioTek Instruments, Winooski, Vt.)."}, "IL 6 [1]": {"system": "IL 6", "assay": "cellular IL 6 content in MLEC (ELISA)", "type": "cell-based, mouse", "settings": "MLEC treated directly; theophylline 1 μM, leucine 0.5 mM, resveratrol 200 nM; FIG. 7", "description": "(§2) Cells were grown in Dulbecco's modified eagle's medium (DMEM) containing a growth factor supplement (Cell Biologics #M1 166) which included 5% fetal bovine serum (FBS), heparin, EGF, hydrocortisone, L-glutamine and antibiotics at 37° C. in 5% CO2.\nas §1\n(§3) Following treatment, western blots or ELISA assays were performed on the MLEC to determine the level of various indicators of airway diseases, such as NFκB protein expression, eotaxin secretion, IL1-β secretion, cellular IL6 content or secretion, adiponectin receptor 1 protein expression, and adiponectin receptor 2 protein expression."}, "[2]": {"system": "OVA-induced asthmatic mice", "assay": "BALF cellularity by flow cytometry in OVA-induced asthma", "type": "in vivo, Balb/c mice", "settings": "theophylline 10 mg/kg IP, baseline 12 g leucine diet", "description": "The interactive effects of leucine and theophylline was evaluated in sixty young adult female Balb/c mice that were randomized to the following six groups (n=10/group):\nGroup 1 was an untreated control group that was administered a diet containing a baseline level of leucine at 12 g of leucine/day.\nGroup 2 was a positive control group that was administered dexamethasone via IP injection and a diet containing a baseline level of leucine at 12 g of leucine/day.\nGroup 3 was administered a diet containing a high level of leucine (diet containing leucine at 12 g/day for days 0-13 and 24 g/day beginning on day 14) and no theophylline or dexamethasone.\nGroup 4 was administered sub-therapeutic level of theophylline (1 mg/kg theophylline, 10% of therapeutic level) via IP injection and a high leucine diet (diet containing leucine at 12 g/day for days 0-13 and 24 g/day beginning on day 14). […]\nAnimals were sacrificed on day 28, subjected to bronchial alveolar lavage and the lavage fluid (BALF, 2 mL) and lungs collected. Airway inflammation was evaluated by assessing cellularity of BALF via flow cytometer; parameters used for cellular differentiation were sized granularity, autofluorescence and the expression of the following markers: CD45, Gr-1, CD11b, CCR3, B220 and CD3. […]"}, "NFκB": {"system": "NFκB", "assay": "NFκB protein expression by Western blot in directly treated MLEC", "settings": "theophylline 1 μM, leucine 0.5 mM, resveratrol 200 nM, FIG. 1"}, "eotaxin": {"system": "eotaxin", "assay": "eotaxin secretion from MLEC (ELISA)", "type": "cell-based, mouse", "settings": "MLEC treated directly; theophylline 1 μM, leucine 0.5 mM, resveratrol 200 nM; FIG. 5", "text": "as §1"}, "IL 6 [3]": {"system": "IL 6", "assay": "IL 6 secretion from MLEC (ELISA)", "type": "cell-based, mouse", "settings": "positive control, FIG. 8", "description": "as §2, §1, §3"}},
  "data": [
    {"molecule": "Cn1c(=O)c2[nH]cnc2n(C)c1=O", "note": "[theophylline]", "values": [
      {"measurement": "IL1-β secretion", "setting": "IL1-β", "result": "no significant independent effect"},
      {"measurement": "cellular expression of IL 6", "setting": "IL 6 [1]", "result": "unaffected"},
      {"measurement": "eosinophil number in BALF", "setting": "[2]; FIG. 15", "result": "modest significant decreases"},
      {"measurement": "T-cell number in BALF", "setting": "[2]; trend not significant (0.05<p<0.1), FIG. 16", "result": "modestly reduced"},
      {"measurement": "NFκB protein expression relative to control", "setting": "NFκB", "result": "no independent effect"}
    ]},
    {"molecule": "TNFα", "values": [
      {"measurement": "IL1-β secretion", "setting": "IL1-β", "result": "significant increase"},
      {"measurement": "eotaxin secretion into the media", "setting": "eotaxin", "result": "no significant effect"},
      {"measurement": "IL 6 secretion", "setting": "IL 6 [3]", "result": "significant increase"}
    ]}
  ]
}
